Experimental data reported in patent publication US20120142771A1, “BIPHENYLACETAMIDE DERIVATIVE” (Dainippon Sumitomo Pharma Co., Ltd., priority 2008, published 2012).

Key:
[1] = tested on: maximum electroshock seizure (MES) model; experiment: Maximum electroshock seizure (MES) model test; type: in vivo, mice
Method in brief: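 Male Slc: ddY mice (3 per group, 20-30 g) received compound orally at 50 or 100 mg/kg; controls got 0.5% tragacanth or 0.5% methylcellulose. One hour post-dose, corneal stimulation (60 Hz, 25 mA, 0.2 s) induced tonic hind-limb extensor convulsion.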

[2] = tested on: subcutaneously pentetrazol-injected model (scPTZ); experiment: Subcutaneously pentetrazol-injected model (scPTZ) test; type: in vivo, mice; settings: pentetrazol 85 mg/kg s.c. after 1 hour
Method in brief: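 Male Slc:ddY mice (20-30 g, 3 per group) dosed orally at 50 or 100 mg/kg; pentetrazol 85 mg/kg given subcutaneously 1 h later. Controls received 0.5% tragacanth or 0.5% methylcellulose vehicle.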

amygdala-kindling model = experiment: Amygdala-kindling model in rats; type: in vivo
From the text: Test 3: Test with Amygdala-Kindling Model in Rats
Test 3 evaluates the anticonvulsant action of medicaments in rats, besides mice in Tests 1 and 2. Animal model (kindling model) used herein is a very similar model to clinical findings of focal onset seizures (i.e. simple partial seizure, complex partial seizure, and secondarily generalized tonic-clonic seizure), which is known to provide excellent clinical prediction. A chronic electrode was implanted in the cortex (frontal and posterior regions) and the amygdala of Slc: Wistar male rats (body weight 250-300 g). One week after the above operation, electrical stimulation (50 Hz, 400 μA, 1 second) into the amygdala was conducted once a day for about two weeks. The stimulation condition was determined according to the method of Loscher et al. [Epilepsy Res., 40: 63-77 (2000)]. The stimulation was continued until the seizure stage 5 in the seizure severity stages according to the method of Racine et al. [Motor seizure. Electroenceph. Clin. Neurophysiol., 32:281-294 (1972)] was observed 10 consecutive times. Kindling model was thus completed. Then, test compounds (100 mg/kg) were orally administered to this model. After an hour of administration, the rats were evaluated based on three parameters, i.e., a threshold stimulus current to induce seizure (i.e. seizure threshold), the duration of afterdischrage observed on an electroencephalogram, and seizure severity (stage scores 1-5). The results of the seizure threshold and the afterdischarge duration were shown as average percentage of change from the pretreatment value obtained before the administration of each test compound. To the control rats, 0.5% tragacanth solution was administered. Minus means decreased or shortened.

Crl: CD (SD) male rats = experiment: Evaluation of antidepressant effect (forced swimming, duration of immobility); type: in vivo
From the text: (§1) Meanwhile, there are no reports about animal models which provide a good clinical prediction to evaluate the improving efficacy for bipolar disorder. However, bipolar disorder comprises “manic state” and “depressive state”, and some animals are reported to be useful as a model to evaluate the improvement of each pathological condition individually. In general, an index of manic state is excessive hyperactivity induced by administering methamphetamine and chlordiazepoxide in combination, and that of depressive state is immobility induced by forced swimming.
Test 6: Evaluation of Antidepressant Effect
Test 6 is a typical test to evaluate the antidepressant activity of medicaments (Porsolt et al., Nature, 266: 730-732, 1977, Porsolt et al., Eur. J. Pharmacol., 47: 379-391, 1978). Crl: CD (SD) male rats (12 rats in each group, body weight 200-250 g) were forced to swim for 15 minutes in a water pool with 200 mm diameter. In the pool, water was filled up to a depth of 205 mm from the bottom of the pool, and thus the rats could not touch the bottom of the pool with their hind limbs. Fifteen minutes after the completion of the forced swimming, test compounds were orally administered to the rats. On the next day, the test compounds were administered to the rats at the same dose as the previous day, and the rats were put in the pool for 5 minutes at the same clock time as the previous day. […] The antidepressant effect was evaluated by calculating how long the duration of immobility was shortened against the control. To the control, 0.5% methylcellulose solution was administered.

Slc: C57BL/6J male mice = experiment: Evaluation of antimanic effect (methamphetamine and chlordiazepoxide induced hyperactivity, locomotor distance); type: in vivo; settings: methamphetamine 4 mg/kg and chlordiazepoxide 10 mg/kg i.p.
From the text: as §1
Test 7: Evaluation of Antimanic Effect
Test 7 evaluates the antimanic effect of medicaments. The evaluation system is a test system whose utility has been already confirmed with a known antimanic agent which is clinically used as a mood-stabilizing drug, not as a drug for treating schizophrenia (Arban et al., Behay. Brain Res., 158:123-132, 2005, Foreman et al., Pharmacol. Biochem. Behay., 89: 523-534, 2008). Test compounds were orally administered to Slc: C57BL/6J male mice (8 mice in each group, body weight 20-26 g). After 30 minutes of administration, methamphetamine (4 mg/kg) and chlordiazepoxide (10 mg/kg) were administered intraperitoneally. Then, the mice were allowed to move freely in an acrylic cage (W 360 mm×D 230 mm×H 310 mm) for 90 minutes. The locomotor distances of the mice were measured with Ethovision software (Ver. 3.1). Among the 90 minutes, the result of the latter 60 minutes with the exception of the first 30 minute's result for adaptation to the new environment was used as data of the locomotor distance. The antimanic effect was evaluated by calculating how long locomotor distance was shortened against the control. To the control mice, 0.5% methylcellulose solution was administered.

SMILES: NC(=O)Cc1ccccc1-c1ccccc1F [Example 1, 2-(2′-Fluorobiphenyl-2-yl)acetamide]
- responders at 50 mg/kg ([1]; Mus musculus, po, 1 h, 50 mg/kg oral, Slc: ddY male mice, 3 per group, electrical stimulation 1 hour after administration, inhibition of hind limb extension, read-out: MES (positive number/tested number) (converted)): 100%
- responders at 100 mg/kg ([1]; Mus musculus, po, 1 h, 100 mg/kg oral, Slc: ddY male mice, 3 per group, electrical stimulation 1 hour after administration, inhibition of hind limb extension, read-out: MES (positive number/tested number) (converted)): 100%
- anticonvulsant action in maximum electroshock seizure (MES) model test ([1]; mice, oral 50 or 100 mg/kg, 1 hour after administration): anticonvulsant action was observed
- responders at 50 mg/kg ([2]; Mus musculus, po, 1 h, 50 mg/kg oral, Slc: ddY male mice, 3 per group, observed 30 minutes for clonic convulsion, read-out: scPTZ (positive number/tested number) (converted)): 66.7%
- responders at 100 mg/kg ([2]; Mus musculus, po, 1 h, 100 mg/kg oral, Slc: ddY male mice, 3 per group, observed 30 minutes for clonic convulsion, read-out: scPTZ (positive number/tested number) (converted)): 66.7%
- anticonvulsant action in subcutaneously pentetrazol-injected model (scPTZ) test ([2]; mice, oral 50 or 100 mg/kg): anticonvulsant action was observed
- Seizure threshold (uA) Δ % change (amygdala-kindling model; 100 mg/kg oral, 1 hour after administration, average percentage of change from pretreatment value): 69.3%
- Afterdischarge duration (sec) Δ % change (amygdala-kindling model; 100 mg/kg oral, 1 hour after administration, change from pretreatment value, minus means shortened): −88%
- Seizure severity score (amygdala-kindling model; 100 mg/kg oral, 1 hour after administration, stage scores 1-5): 2.0
- efficacy against the amygdala-kindling model (amygdala-kindling model; oral administration at a dose of 100 mg/kg): potent efficacy
- The rate of the shortened duration of immobility (% control) (Crl: CD (SD) male rats; 10 mg/kg oral): 23.4 % control
- The rate of the shortened duration of immobility (% control) (Crl: CD (SD) male rats; 30 mg/kg oral): 24.9 % control
- The rate of the shortened locomotor-distance (% control) (Slc: C57BL/6J male mice; 30 mg/kg oral): 24.1 % control
- The rate of the shortened locomotor-distance (% control) (Slc: C57BL/6J male mice; 60 mg/kg oral): 43.8 % control
- The rate of the shortened locomotor-distance (% control) (Slc: C57BL/6J male mice; 100 mg/kg oral): 73.8 % control
